# Assay: (§1) The drug is tested on WLS-073 corresponding to human gut metagenome with ENA study accession number: PRJEB37062 and ENA sample accession number: ERS12561749 for biotransformation under anaerobic condition. The drug concentrations were measured over 9 timepoints collected between 0 and 24 hours of incubation by liquid-chromatography-coupled mass spectrometry (LC–MS)
# Conditions: 2 µM
# Further: call rule not given here.
row,SMILES,Bacterial Biotransformation
1,CC(=O)OCC(=O)NCCCOc1cccc(CN2CCCCC2)c1 [ROXATIDINE ACETATE],Compound metabolized
2,O=C(O)CCC(=O)O.O=C(O[C@H]1CN2CCC1CC2)N1CCc2ccccc2[C@@H]1c1ccccc1 [SOLIFENACIN SUCCINATE],Compound metabolized

# Assay: as §1, with “WLS-052” for “WLS-073”, “ERS12561747” for “ERS12561749”
# Conditions: 2 µM
row,SMILES,Bacterial Biotransformation
1,CC(=O)OCC(=O)NCCCOc1cccc(CN2CCCCC2)c1 [ROXATIDINE ACETATE],Compound metabolized
2,O=C(O)CCC(=O)O.O=C(O[C@H]1CN2CCC1CC2)N1CCc2ccccc2[C@@H]1c1ccccc1 [SOLIFENACIN SUCCINATE],Compound NOT metabolized

# Assay: as §1, with “Z-004” for “WLS-073”, “to” for “to human gut”, “ERS12561804” for “ERS12561749”
# Conditions: 2 µM
row,SMILES,Bacterial Biotransformation
1,CC(=O)OCC(=O)NCCCOc1cccc(CN2CCCCC2)c1 [ROXATIDINE ACETATE],Compound metabolized
2,O=C(O)CCC(=O)O.O=C(O[C@H]1CN2CCC1CC2)N1CCc2ccccc2[C@@H]1c1ccccc1 [SOLIFENACIN SUCCINATE],Compound metabolized

# Assay: as §1, with “Z-007” for “WLS-073”, “rat” for “human”, “ERS12561807” for “ERS12561749”
# Conditions: 2 µM
row,SMILES,Bacterial Biotransformation
1,CC(=O)OCC(=O)NCCCOc1cccc(CN2CCCCC2)c1 [ROXATIDINE ACETATE],Compound metabolized
2,O=C(O)CCC(=O)O.O=C(O[C@H]1CN2CCC1CC2)N1CCc2ccccc2[C@@H]1c1ccccc1 [SOLIFENACIN SUCCINATE],Compound NOT metabolized

# Conditions: human gut metagenome, 24 h, 2 µM
row,SMILES,Bacterial Biotransformation
1,CC(=O)OCC(=O)NCCCOc1cccc(CN2CCCCC2)c1 [ROXATIDINE ACETATE],Compound metabolized
2,O=C(O)CCC(=O)O.O=C(O[C@H]1CN2CCC1CC2)N1CCc2ccccc2[C@@H]1c1ccccc1 [SOLIFENACIN SUCCINATE],Compound metabolized

# Assay: as §1, with “Z-022” for “WLS-073”, “mouse” for “human”, “ERS12561821” for “ERS12561749”
# Conditions: 2 µM
row,SMILES,Bacterial Biotransformation
1,CC(=O)OCC(=O)NCCCOc1cccc(CN2CCCCC2)c1 [ROXATIDINE ACETATE],Compound metabolized
2,O=C(O)CCC(=O)O.O=C(O[C@H]1CN2CCC1CC2)N1CCc2ccccc2[C@@H]1c1ccccc1 [SOLIFENACIN SUCCINATE],Compound metabolized

# Conditions: human gut metagenome, 24 h, 2 µM
# Remark: another data set of the same source
row,SMILES,Bacterial Biotransformation
1,CC(=O)OCC(=O)NCCCOc1cccc(CN2CCCCC2)c1 [ROXATIDINE ACETATE],Compound metabolized
2,O=C(O)CCC(=O)O.O=C(O[C@H]1CN2CCC1CC2)N1CCc2ccccc2[C@@H]1c1ccccc1 [SOLIFENACIN SUCCINATE],Compound metabolized

# Assay: as §1, with “WLS-350” for “WLS-073”, “ERS12561789” for “ERS12561749”
# Conditions: 2 µM
row,SMILES,Bacterial Biotransformation
1,CC(=O)OCC(=O)NCCCOc1cccc(CN2CCCCC2)c1 [ROXATIDINE ACETATE],Compound metabolized
2,O=C(O)CCC(=O)O.O=C(O[C@H]1CN2CCC1CC2)N1CCc2ccccc2[C@@H]1c1ccccc1 [SOLIFENACIN SUCCINATE],Compound metabolized

# Assay: as §1, with “Z-006” for “WLS-073”, “mouse” for “human”, “ERS12561806” for “ERS12561749”
# Conditions: 2 µM
row,SMILES,Bacterial Biotransformation
1,CC(=O)OCC(=O)NCCCOc1cccc(CN2CCCCC2)c1 [ROXATIDINE ACETATE],Compound metabolized
2,O=C(O)CCC(=O)O.O=C(O[C@H]1CN2CCC1CC2)N1CCc2ccccc2[C@@H]1c1ccccc1 [SOLIFENACIN SUCCINATE],Compound NOT metabolized

# Assay: as §1, with “Z-013” for “WLS-073”, “rabbit” for “human”, “ERS12561813” for “ERS12561749”
# Conditions: 2 µM
row,SMILES,Bacterial Biotransformation
1,CC(=O)OCC(=O)NCCCOc1cccc(CN2CCCCC2)c1 [ROXATIDINE ACETATE],Compound NOT metabolized
2,O=C(O)CCC(=O)O.O=C(O[C@H]1CN2CCC1CC2)N1CCc2ccccc2[C@@H]1c1ccccc1 [SOLIFENACIN SUCCINATE],Compound NOT metabolized

# Assay: as §1, with “WLS-010” for “WLS-073”, “ERS12561743” for “ERS12561749”
# Conditions: 2 µM
row,SMILES,Bacterial Biotransformation
1,CC(=O)OCC(=O)NCCCOc1cccc(CN2CCCCC2)c1 [ROXATIDINE ACETATE],Compound metabolized
2,O=C(O)CCC(=O)O.O=C(O[C@H]1CN2CCC1CC2)N1CCc2ccccc2[C@@H]1c1ccccc1 [SOLIFENACIN SUCCINATE],Compound metabolized

# Conditions: human gut metagenome, 24 h, 2 µM
# Remark: another data set of the same source
row,SMILES,Bacterial Biotransformation
1,CC(=O)OCC(=O)NCCCOc1cccc(CN2CCCCC2)c1 [ROXATIDINE ACETATE],Compound metabolized
2,O=C(O)CCC(=O)O.O=C(O[C@H]1CN2CCC1CC2)N1CCc2ccccc2[C@@H]1c1ccccc1 [SOLIFENACIN SUCCINATE],Compound NOT metabolized

# Conditions: human gut metagenome, 24 h, 2 µM
# Remark: another data set of the same source
row,SMILES,Bacterial Biotransformation
1,CC(=O)OCC(=O)NCCCOc1cccc(CN2CCCCC2)c1 [ROXATIDINE ACETATE],Compound metabolized
2,O=C(O)CCC(=O)O.O=C(O[C@H]1CN2CCC1CC2)N1CCc2ccccc2[C@@H]1c1ccccc1 [SOLIFENACIN SUCCINATE],Compound NOT metabolized

# Assay: as §1, with “Z-023” for “WLS-073”, “to” for “to human gut”, “ERS12561822” for “ERS12561749”
# Conditions: 2 µM
row,SMILES,Bacterial Biotransformation
1,CC(=O)OCC(=O)NCCCOc1cccc(CN2CCCCC2)c1 [ROXATIDINE ACETATE],Compound metabolized
2,O=C(O)CCC(=O)O.O=C(O[C@H]1CN2CCC1CC2)N1CCc2ccccc2[C@@H]1c1ccccc1 [SOLIFENACIN SUCCINATE],Compound metabolized

# Conditions: human gut metagenome, 24 h, 2 µM
# Remark: another data set of the same source
row,SMILES,Bacterial Biotransformation
1,CC(=O)OCC(=O)NCCCOc1cccc(CN2CCCCC2)c1 [ROXATIDINE ACETATE],Compound metabolized
2,O=C(O)CCC(=O)O.O=C(O[C@H]1CN2CCC1CC2)N1CCc2ccccc2[C@@H]1c1ccccc1 [SOLIFENACIN SUCCINATE],Compound metabolized

# Assay: as §1, with “Z-025” for “WLS-073”, “rabbit” for “human”, “ERS12561824” for “ERS12561749”
# Conditions: 2 µM
row,SMILES,Bacterial Biotransformation
1,CC(=O)OCC(=O)NCCCOc1cccc(CN2CCCCC2)c1 [ROXATIDINE ACETATE],Compound metabolized
2,O=C(O)CCC(=O)O.O=C(O[C@H]1CN2CCC1CC2)N1CCc2ccccc2[C@@H]1c1ccccc1 [SOLIFENACIN SUCCINATE],Compound metabolized

# Conditions: human gut metagenome, 24 h, 2 µM
# Remark: another data set of the same source
row,SMILES,Bacterial Biotransformation
1,CC(=O)OCC(=O)NCCCOc1cccc(CN2CCCCC2)c1 [ROXATIDINE ACETATE],Compound metabolized
2,O=C(O)CCC(=O)O.O=C(O[C@H]1CN2CCC1CC2)N1CCc2ccccc2[C@@H]1c1ccccc1 [SOLIFENACIN SUCCINATE],Compound NOT metabolized

# Conditions: human gut metagenome, 24 h, 2 µM
# Remark: another data set of the same source
row,SMILES,Bacterial Biotransformation
1,CC(=O)OCC(=O)NCCCOc1cccc(CN2CCCCC2)c1 [ROXATIDINE ACETATE],Compound metabolized
2,O=C(O)CCC(=O)O.O=C(O[C@H]1CN2CCC1CC2)N1CCc2ccccc2[C@@H]1c1ccccc1 [SOLIFENACIN SUCCINATE],Compound NOT metabolized

# Assay: as §1, with “Z-009” for “WLS-073”, “pig” for “human”, “ERS12561809” for “ERS12561749”
# Conditions: 2 µM
row,SMILES,Bacterial Biotransformation
1,CC(=O)OCC(=O)NCCCOc1cccc(CN2CCCCC2)c1 [ROXATIDINE ACETATE],Compound metabolized
2,O=C(O)CCC(=O)O.O=C(O[C@H]1CN2CCC1CC2)N1CCc2ccccc2[C@@H]1c1ccccc1 [SOLIFENACIN SUCCINATE],Compound metabolized

# Conditions: human gut metagenome, 24 h, 2 µM
# Remark: another data set of the same source
row,SMILES,Bacterial Biotransformation
1,CC(=O)OCC(=O)NCCCOc1cccc(CN2CCCCC2)c1 [ROXATIDINE ACETATE],Compound metabolized
2,O=C(O)CCC(=O)O.O=C(O[C@H]1CN2CCC1CC2)N1CCc2ccccc2[C@@H]1c1ccccc1 [SOLIFENACIN SUCCINATE],Compound NOT metabolized
